# Measured values published in PMC13013135, “[^99mTc]Tc-PSMA-HSG for PSMA-targeted Hybrid Surgical Guidance: a new addition to the PSMA-I&S/I&T family” (European Journal of Nuclear Medicine and Molecular Imaging, 2025).
# Columns and labels:
# [1] = molecular target: PSMA (Homo sapiens, UniProt Q04609); set-up: Five patients with a diagnosis of initial (n = 4) or biochemical recurrence of (n = 1) histologically proven prostate cancer; from tissue; host or cells: prostate cancer patients: primary tumour, lymph nodes, resected tissue sections; method as in PMID 27635024, PMID 30237214; conditions: LNCaP cells, identical experimental conditions; cited from earlier work
# [2] = test system: PC3-Pip xenografts in NSG mice; assay: Fluorescence imaging in mice with clinical-grade fluorescence endoscope; assay type: in vivo, mouse
# Procedure: Fluorescence imaging of PC3-Pip xenografts in NSG mice (2 h p.i. at a PSMA-HSG dose of 1 nmol and 6 h p.i. at a ligand dose of 0.1 nmol, respectively; n = 1 per compound and condition) was performed using a clinical-grade fluorescence laparoscopy set-up (KARL STORZ Endoskope GMBh & Co. KG). Cy5-based tumor imaging was performed using D-light P system and a prototype modified IMAGE 1 S light source with integrated Cy5 filter (both KARL STORZ Endoskope GMBh & Co. KG). Images were recorded using integrated KARL STORZ software and image processing was performed using custom MATLAB software that provided a signal intensity-based representation of the signal-to-background ratio (SBR; [45, 46]).
# PC-3 PIP xenografts were established by subcutaneous injection of 5 × 10^6 PC3-PIP cells/mouse using 8–12-week-old male NSG mice (in-house breeding, Dpt. of Oncology, University of Lausanne) as previously described. Tumors reached a size of 4-8 mm in diameter after 5-6 days and were then immediately used for the fluorescence imaging studies.
# [3] = test system: LNCaP cells; assay: Fluorescence microscopy of ligand internalization; assay type: cell-based, human; conditions: 100 nM
# Procedure: Competitive binding experiments (IC50) were carried out in accordance with an established protocol using PSMA-expressing LNCaP cells and ([^125I]I-BA)KuE as standard radioligand. Internalization kinetics of [^99mTc]Tc-PSMA-HSG (0.5 nM) were investigated in a dual tracer internalization assay using PSMA expressing LNCaP cells and ([^125I]I-BA)KuE (0.1 nM) as an internal reference. Non-specific binding/internalization was determined in the presence of 10 µM 2-PMPA. Furthermore, PSMA-HSG internalization into LNCaP cells was investigated using fluorescence microscopy (100 nM PSMA-HSG). Please see the Supplementary Material for experimental details.
# Two days prior to the experiment, LNCaP cells (approximately 100.000 cells/well) were seeded on round glass coverslips placed in the bottoms of the wells of 24-well plates. After cell adhesion and expansion, the culture medium was removed by aspiration, and the cells were washed with HBSS (1% BSA). […]
# Fluorescence images were acquired on a Zeiss Axio Observer Z1 inverted microscope using a Plan Apochromat 20x, N.A. 0.8, air, DIC objective or a Plan Apochromat 63x, N.A. 1.4, oil, DIC objective. […] Fluorescence illumination was provided by an X-Cite fluorescence lamp. […]
# [4] = Photophysical characterization; assay type: physicochemical; conditions: in a 5% human serum albumin solution
# Procedure: The determination of the quantum yield and molar extinction coefficient of PSMA-HSG were performed according to previously published procedures.
# Of the free dye HOOC-(SO3)Cy5(SO3)-Methyl (Sulfo-Cy5), a 100 µM stock solution in PBS was prepared. From this, a dilution series comprising the following concentrations was prepared: 7.5 µM, 5 µM, 2.5 µM, 1 µM, 0.75 µM, 0.5 µM, 0.25 µM. Of these solutions, absorption spectra (n=3 per concentration) were recorded using a Shimadzu UV-1280 spectrometer (Shimadzu, Kyoto, Japan). The concentrations were plotted against the mean of the maximum absorbance per concentration. A trendline was fitted, with the regression coefficient x 10^6 representing the molar extinction coefficient (R^2 ≥ 0.9900) in M^-1.L^-1.cm^-1.
# The brightness in (M^-1.L^-1.cm^-1) was calculated using the following formula:
# Brightness =Quantum yield hybrid label*Molar extinction coefficient free dye
# [5] = test system: PC3-Pip tumor slices; assay: Confocal fluorescence imaging of excised tumor specimens; assay type: in vivo, mouse
# Procedure: After in vivo imaging, the tumors (n = 1 per condition) were excised and cut into 2 mm slices. Prior to imaging, slices were placed on a 35-mm culture dish containing a glass insert (MatTek Co.). Fluorescence confocal imaging was then performed using a Leica SP8 WLL microscope (Leica Microsystems). For assessment of tracer uptake Cy5 settings were used; λex = 633 nm, λem = 650–700 nm. Images were processed using accompanying LASX software (Leica Application Software Suite 4.8).
# [6] = test system: PSMA expressing LNCaP cells; set-up: method as in PMID 27635024, PMID 30237214; conditions: 60 min, 37 °C, normalized to ([^125I]IBA)KuE; cited from earlier work
# Chain of PSMA (Q04609 whole entry): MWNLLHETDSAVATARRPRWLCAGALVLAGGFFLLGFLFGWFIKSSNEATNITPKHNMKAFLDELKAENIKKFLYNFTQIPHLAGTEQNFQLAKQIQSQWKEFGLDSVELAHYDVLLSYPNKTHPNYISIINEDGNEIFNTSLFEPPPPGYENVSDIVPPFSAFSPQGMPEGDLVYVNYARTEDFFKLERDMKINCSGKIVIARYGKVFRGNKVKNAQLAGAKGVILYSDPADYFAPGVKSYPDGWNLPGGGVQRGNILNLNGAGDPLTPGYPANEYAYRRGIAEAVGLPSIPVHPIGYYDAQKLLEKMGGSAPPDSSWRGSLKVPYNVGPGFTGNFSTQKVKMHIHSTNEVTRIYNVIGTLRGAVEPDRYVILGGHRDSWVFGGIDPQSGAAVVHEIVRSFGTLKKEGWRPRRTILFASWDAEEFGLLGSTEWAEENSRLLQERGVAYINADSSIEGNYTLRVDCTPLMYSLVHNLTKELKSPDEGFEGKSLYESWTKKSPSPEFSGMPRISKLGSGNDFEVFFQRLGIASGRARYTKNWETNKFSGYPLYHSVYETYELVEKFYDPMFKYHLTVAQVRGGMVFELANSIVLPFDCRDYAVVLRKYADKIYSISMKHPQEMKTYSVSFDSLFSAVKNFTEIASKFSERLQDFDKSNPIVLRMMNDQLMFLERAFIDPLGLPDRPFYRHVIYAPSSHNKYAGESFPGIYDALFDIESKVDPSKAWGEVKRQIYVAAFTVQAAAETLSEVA
molecule,measurement,setting,value
"PSMA-I&S: non-fluorescent parent compound, unlabeled",IC50,[1],39.7 ± 1.2 nM
CC(=O)SCC(=O)N[C@H](CO)C(=O)N[C@H](CO)C(=O)N[C@H](CO)C(=O)N[C@H](CCCCNC(=O)CCCCCN1/C(=C/C=C/C=C/C2=[N+](C)c3ccc(S(=O)(=O)[O-])cc3C2(C)C)C(C)(C)c2cc(S(=O)(=O)O)ccc21)C(=O)N[C@H](Cc1ccc(O)cc1)C(=O)N[C@H](Cc1ccc2ccccc2c1)C(=O)N[C@H](CCCCNC(=O)CCCCCCC(=O)NCCCC[C@H](NC(=O)N[C@@H](CCC(=O)O)C(=O)O)C(=O)O)C(=O)O [PSMA-HSG],"in vivo tumor fluorescence, Cy5 fluorescence endoscope","[2]; 0.1 nmol, 6 h p.i.",only a weak fluorescence signal
same,"in vivo tumor fluorescence, Cy5 fluorescence endoscope","[2]; 1 nmol, 2 h p.i.",high relative PSMA-HSG fluorescence intensity
same,"membrane binding, fluorescence microscopy","[3]; 30 min, 4 °C",intense and PSMA-specific membrane staining
same,"internalization, fluorescence microscopy","[3]; 60 min, 37 °C",efficient ligand translocation into the cells
same,quantum yield,[4],26%
same,confocal fluorescence microscopy of tumor slices,[5]; 2 h p.i./1 nmol,strong and homogenous PSMA-HSG fluorescence
same,confocal fluorescence microscopy of tumor slices,[5]; 6 h p.i./0.1 nmol (low dose/late timepoint),"detectable, but weak fluorescence signal"
O=C(O)CC[C@H](NC(=O)NC(CCCCNC(=O)c1ccc([125I])cc1)C(=O)O)C(=O)O (stereo partly drawn) [([^125I]IBA)KuE],internalization [% of reference],[6],100 % of reference
